Laboratory results reported in US12516038B2, “Inhibitors of antigen presentation by HLA-DR” (Janssen Pharmaceutica NV, priority 2020, dated 2026).

Legend:
HLA-DRB1*0401 = HLA-DRB1*0401 (Homo sapiens (Human), UniProt P01903+P01911, A100K/A169T/DEL228-266/F76Y/I96L/K127E/L162R/M171V/N62H/P40V/Q125Y/R42H/S133A/S149N/S66Y/V115G/V209L/W38E); experiment: HLA-DR4 HTRF assay; assay type: binding; conditions: inhibition of loading of Alexa Fluor 647-labeled Cit-CII peptide onto HLA-DR4 (CLIP cleaved)
Method in brief: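 HLA-DRB1*04:01 construct (α/β fused to human Fc, CLIP pre-cleaved by HRV3C overnight at 4° C) at 3 nM was preincubated 45 min with compound and 1 nM anti-Fc-Tb donor, then 40 nM Alexa647-Cit-CII1236-1249 peptide added. After 90 min at 37° C, the 665/620 nm HTRF ratio gave % inhibition; IC50 by nonlinear regression.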

[1] = test system: HLA-DR4 restricted mouse T cell hybridoma line (DR4.CII.36.8) with HLA-DRB1*04:01-expressing Boleth cells; experiment: HLA-DR4-restricted peptide-specific T cell-based assay (hybridoma assay); conditions: Mus musculus, T-cell, 6 h, inhibition of IL-2 production, CII259-273 peptide presented by Boleth cells
Method in brief: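 Boleth cells (HLA-DRB1*04:01 B cell line) pre-incubated with compound 1 h at 37° C. in DMEM/1% FCS, then DR4.CII.36.8 mouse T cell hybridoma (CII259-273-specific) added for 6 h with CII259-273 peptide. Supernatant mouse IL-2 by AlphaLISA; IC50 by 4-PL fit of 8-point duplicate titrations.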

[2] = test system: human peripheral blood CD4+ helper T cells; experiment: Pan-CD4+ T cell activation (off-target assay); assay type: cell-based; conditions: Homo sapiens, T-cell, 24 h, anti-CD3/anti-CD28 stimulation, IL-2 production by ELISA
Method in brief: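 Human peripheral blood CD4+ T cells, with no APCs present, were stimulated with plate-bound anti-CD3 (1 μg/mL coating) plus soluble anti-CD28 (1 μg/mL) in the presence of compound or vehicle for 24 h. IL-2 in the supernatant was quantified by ELISA.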

Row | SMILES | IC50 (HLA-DRB1*0401) | IC50 [1] | IC50 [2]
1 | Cc1cc([C@H](Oc2c(F)cc3c(c2C)OCCC3=O)c2ccc(C(N)=O)cc2)cc(C)n1 (single isomer, unassigned) [Example 94a, (*R)-4-((2,6-dimethylpyridin-4-yl)((6-fluoro-8-methyl-4-oxochroman-7-yl)oxy)methyl)benzamide] | 0.22 µM | 0.047 µM | 9.9 µM
2 | Cc1cc([C@@H](Oc2c(F)cc3c(c2C)OCCC3=O)c2ccc(C(N)=O)cc2)cc(C)n1 (single isomer, unassigned) [Example 94b, (*S)-4-((2,6-dimethylpyridin-4-yl)((6-fluoro-8-methyl-4-oxochroman-7-yl)oxy)methyl)benzamide] | 0.23 µM | 0.89 µM | 9.9 µM
3 | CCc1cc(O[C@@H](c2ccncc2)c2ccc(C(N)=O)cc2)cc2c1C(=O)CCO2 (single isomer, unassigned) [Example 99a, (*R)-4-(((5-ethyl-4-oxochroman-7-yl)oxy)(pyridin-4-yl)methyl)benzamide] | 42 µM | 0.59 µM | 3.1 µM
4 | NC(=O)c1ccc([C@@H](Oc2ccc3c(c2Br)OCCC3=O)c2ccncc2)cc1 (single isomer, unassigned) [Example 102a, (*R)-4-(((8-bromo-4-oxochroman-7-yl)oxy)(pyridin-4-yl)methyl)benzamide] | 78 µM | 0.099 µM | 15 µM
5 | NC(=O)c1ccc([C@H](Oc2ccc3c(c2Br)OCCC3=O)c2ccncc2)cc1 (single isomer, unassigned) [Example 102b, (*S)-4-(((8-bromo-4-oxochroman-7-yl)oxy)(pyridin-4-yl)methyl)benzamide] | > 89 µM | 0.091 µM | > 15 µM
6 | Cc1cc([C@@H](Oc2ccc3c(c2C)OCCC3=O)c2ccc(C(N)=O)cc2)cc(C)n1 (single isomer, unassigned) [Example 111b, (*S)-4-((2,6-dimethylpyridin-4-yl)((8-methyl-4-oxochroman-7-yl)oxy)methyl)benzamide] | 0.56 µM | 0.021 µM | 4.8 µM
7 | O=C1CCOc2cc(O[C@H](c3ccccc3)c3ccncc3)ccc21 (single isomer, unassigned) [Example 114a, (*R)-7-(phenyl(pyridin-4-yl)methoxy)chroman-4-one] | 1.4 µM | 5.5 µM | > 15 µM
8 | O=C1CCOc2cc(O[C@@H](c3ccccc3)c3ccncc3)ccc21 (single isomer, unassigned) [Example 114b, (*S)-7-(phenyl(pyridin-4-yl)methoxy)chroman-4-one] | 1.3 µM | 3 µM | 4.7 µM
9 | CC[C@@H]1CC(=O)c2ccc(OCc3ccnc(C)c3)cc2O1 (single isomer, unassigned) [Example 118a, (*R)-2-ethyl-7-((2-methylpyridin-4-yl)methoxy)chroman-4-one] | 0.96 µM | 7.5 µM | > 15 µM
10 | CC[C@H]1CC(=O)c2ccc(OCc3ccnc(C)c3)cc2O1 (single isomer, unassigned) [Example 118b, (*S)-2-ethyl-7-((2-methylpyridin-4-yl)methoxy)chroman-4-one] | 0.99 µM | 12 µM | > 15 µM
11 | Cc1c(O[C@H]2CCc3cc(C(N)=O)ccc32)ccc2c1OCCC2=O (single isomer, unassigned) [Example 121b, (*S)-1-((8-methyl-4-oxochroman-7-yl)oxy)-2,3-dihydro-1H-indene-5-carboxamide] | 0.83 µM | 14 µM | > 15 µM
12 | NC(=O)c1ccc([C@@H](Oc2ccc3c(c2)OCC(c2ccccc2)C3=O)c2ccncc2)cc1 (stereo in doubt) [Example 47, 4-((1*R)-((4-Oxo-3-phenylchroman-7-yl)oxy)(pyridin-4-yl)methyl)benzamide] | 6.5 µM | 0.6 µM | 9.9 µM
